Series [1] addresses T1, PtSIT1 (Phaeodactylum tricornutum, UniProt B7T1F4, Q321A).
T1 construct: gene SIT1
Nature of the series: biochemical.

The target in series [2] is T2, PtSIT1 (Phaeodactylum tricornutum, UniProt B7T1F4).
T2 construct: gene SIT1
The series can be described thus: biochemical.

Series [3] addresses T3, PtSIT1 (Phaeodactylum tricornutum, UniProt B7T1F4, Q104A).
T3 construct: gene SIT1
The series can be described thus: biochemical.

Substrate in the series “purified protein”: O[Si](O)(O)O
Nature of the series: purified protein. The note with it: inward Na+ gradient (150 mM NaCl outside), valinomycin, 50 mM Tris, 150 mM KCl inside, pH 7.4, error s.e.m. of fit.

T3 sequence (B7T1F4 1-512 Q104A): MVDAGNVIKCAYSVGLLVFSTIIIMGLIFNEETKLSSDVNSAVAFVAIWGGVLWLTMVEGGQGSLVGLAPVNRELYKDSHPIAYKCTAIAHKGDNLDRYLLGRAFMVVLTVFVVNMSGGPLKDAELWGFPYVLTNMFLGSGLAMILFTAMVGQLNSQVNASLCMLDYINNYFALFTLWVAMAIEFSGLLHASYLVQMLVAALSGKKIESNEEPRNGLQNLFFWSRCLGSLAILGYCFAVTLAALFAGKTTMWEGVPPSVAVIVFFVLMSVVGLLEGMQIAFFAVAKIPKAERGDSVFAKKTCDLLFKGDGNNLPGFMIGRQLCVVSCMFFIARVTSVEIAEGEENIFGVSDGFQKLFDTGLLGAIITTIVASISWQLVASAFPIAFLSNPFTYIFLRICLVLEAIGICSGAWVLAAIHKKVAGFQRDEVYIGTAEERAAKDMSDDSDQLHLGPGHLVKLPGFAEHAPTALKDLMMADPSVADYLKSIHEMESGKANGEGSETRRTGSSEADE
T1 sequence (B7T1F4 1-512 Q321A): as the sequence (B7T1F4 1-512 Q104A) above, with A104Q, Q321A counted along it

With `O[Si](O)(O)O` [silicic acid], the figures for the Kd on PtSIT1 [1], on PtSIT1 [2] and on PtSIT1 [3] were 13.3 ± 8 µM, 2.9 ± 2.3 µM and 25.5 ± 11 µM, respectively.

B1: PtSIT1 (Phaeodactylum tricornutum) (protein)
chain: MVDAGNVIKCAYSVGLLVFSTIIIMGLIFNEETKLSSDVNSAVAFVAIWGGVLWLTMVEGGQGSLVGLAPVNRELYKDSHPIAYKCTAIAHKGDNLDRYLLGRQFMVVLTVFVVNMSGGPLKDAELWGFPYVLTNMFLGSGLAMILFTAMVGQLNSQVNASLCMLDYINNYFALFTLWVAMAIEFSGLLHASYLVQMLVAALSGKKIESNEEPRNGLQNLFFWSRCLGSLAILGYCFAVTLAALFAGKTTMWEGVPPSVAVIVFFVLMSVVGLLEGMQIAFFAVAKIPKAERGDSVFAKKTCDLLFKGDGNNLPGFMIGRQLCVVSCMFFIARVTSVEIAEGEENIFGVSDGFQKLFDTGLLGAIITTIVASISWQLVASAFPIAFLSNPFTYIFLRICLVLEAIGICSGAWVLAAIHKKVAGFQRDEVYIGTAEERAAKDMSDDSDQLHLGPGHLVKLPGFAEHAPTALKDLMMADPSVADYLKSIHEMESGKANGEGSETRRTGSSEADE
Regarding B1, the Km in the series “purified protein” came out at 19.1 ± 4.5 µM.

Source of the values: paper PMC4912633, “Direct evidence of the molecular basis for biological silicon transport” (Nature Communications, 2016).
